From patent US20040086942A1, “Ige receptor antagonists” (priority 2003, published 2004)
Where two headings read alike, the source gives them in different places. Blank lines part the entries; values can stand above or below the compound they belong to. Where a SMILES comes first, the peptide text is derived from it. Bridges are numbered along the chain shown (N, C = ends).

Tests used:
FcεRI = biological target: T1, FcεRI (Homo sapiens, UniProt P12319); assay: competitive phage ELISA on baculovirus-derived FcεRI; assay type: binding; conditions: for relative binding affinity (in words): compared with the parent
T1 construct: human FcεRI(aa 1-176) was expressed using a baculovirus secretion expression system; host or cells: Hi-5 insect cells infected with baculovirus (virus produced in Sf9; transfer vector pAcGP67)
T1 sequence (P12319 26-201): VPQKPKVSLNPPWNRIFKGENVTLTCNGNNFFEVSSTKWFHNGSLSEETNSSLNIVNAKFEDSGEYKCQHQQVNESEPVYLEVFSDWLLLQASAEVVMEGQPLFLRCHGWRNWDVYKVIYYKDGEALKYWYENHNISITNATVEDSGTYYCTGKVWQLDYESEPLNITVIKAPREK
From the text: The extracellular domain of the alpha subunit of the human FcεRI(aa 1-176) was expressed using a baculovirus secretion expression system (Pharminten). cDNA encoding this domain was obtained through PCR of a plasmid containing a full length clone. The DNA fragment was ligated into baculovirus tranfer vector pAcGP67 and along with BaculoGold linearized baculovirus DNA was transfected into Sf9 cells Spodoptera frugiperda insect cells for baculovirus production (Pharmingen). Soluble FcεRI was affinity purified from the growth media of baculovirus infected Hi-5 insect cells (Expression Systems).
Phage ELISA assays were carried out as described (Lowman, 1998, supra), using Nunc Maxisorp™ plates coated with a 2 μg/mL solution of baculovirus-derived FcεRI. Peptide-phage were pre-incubated for 5-10 min with serial dilutions of receptor, then added to the receptor-coated plate. After incubation for 1 h at room temperature, the plates were washed and an anti-phage HRP-conjugated antibody (Pharmacia) was added. After further incubation for 20 min, plates were again washed and developed using the substrate OPD (Sigma). Optical density at 492 nm was read and plotted as a function of FcεRI concentration to determine an IC50 of inhibition by each peptide-phage variant.
A phage-based alanine scanning approach was used to map the FcεRI binding determinants of IGE134 (SEQ ID NOS:155, 171), as described above for IGE120 (SEQ ID NO:131, 159). […] Additionally, combinations of Ala mutations, deletions, and other substitutions were tested.

[1] = biological target: T2, alpha subunit of the human FcεRI receptor (Homo sapiens, UniProt P12319); assay: cell-based 125I-IgE binding inhibition assay on CHO FcεRI+ cells
T2 construct: expressed in transfected cells; host or cells: Chinese hamster ovary (CHO FcεRI+) cells
T2 sequence (P12319 26-257): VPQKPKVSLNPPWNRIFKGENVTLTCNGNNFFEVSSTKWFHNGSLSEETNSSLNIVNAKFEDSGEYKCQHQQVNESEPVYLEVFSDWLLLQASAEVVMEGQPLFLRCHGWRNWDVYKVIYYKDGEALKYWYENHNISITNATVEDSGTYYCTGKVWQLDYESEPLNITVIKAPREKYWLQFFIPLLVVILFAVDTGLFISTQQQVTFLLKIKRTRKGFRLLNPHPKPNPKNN
Procedure, shortened: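 Peptides, serially diluted 1:3 from 50-500 uM, preincubated 1 h at room temperature on CHO cells expressing human FcεRI alpha, then 1.5 nM 125I-IgE added for 45-60 min at 4 °C. Buffer F12/DMEM, 1% BSA, 0.05% NaN3, pH 7.2. Bound counts by gamma counting; IC50 from 4-parameter fits.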

[2] = 2D NMR structural score versus reference peptide; assay type: physicochemical; design: key to Struct. Score: +++ indicates the peptide is structured similarly to IGE063 (SEQ ID NO:49); + indicates the peptide is structured similarly to IGE063 (SEQ ID NO:49), but is less stable; −/+ indicates the peptide has some elements of stable structure, but the conformation differs from the reference structure (e.g., a different turn type is evident); − indicates the peptide is predominantly unstructured in aqueous solution; conditions: reference IGE063
Protocol: Peptides were evaluated by 2D NMR spectroscopy to assess the effect of substitutions on the three-dimensional structure of the peptide analog. All peptides with a structural score indicated in Table 5 were analyzed by 2D NMR spectroscopy; backbone ^1H resonances were assigned and ^3JHN-Hα coupling constants were measured and compared to the reference peptide (IGE063, SEQ ID NO:49; see Example 5). Peptides are defined to be of similar structure to the reference peptide provided chemical shifts, coupling constants, and NOEs are consistent with that structure.
A structural score was assigned to peptides analyzed by 2D NMR spectroscopy. For each of these peptides, backbone ^1H resonances have been assigned, and the ^3JHN-Ha coupling constants have been measured and compared to the reference peptide (i.e., IGE134 (SEQ ID NOS:155, 171)). Peptides are defined to be of similar structure to the reference peptide provided. chemical shifts, coupling constants, and NOEs are consistent with that structure.

FcεRI-IgG = biological target: T3, FcεRI-IgG (Homo sapiens, UniProt P12319); assay: g3 phage competitive binding ELISA (competition with soluble FcεRI-IgG); conditions: for Relative (IC50) (fold weaker): relative to g3c.42, NDB = no detectable binding
T3 construct: consisting of the extracellular domain of FcεR Ifused to the Fc domain of IgG; host or cells: CHO cells
T3 sequence (P12319 26-205 limits assumed): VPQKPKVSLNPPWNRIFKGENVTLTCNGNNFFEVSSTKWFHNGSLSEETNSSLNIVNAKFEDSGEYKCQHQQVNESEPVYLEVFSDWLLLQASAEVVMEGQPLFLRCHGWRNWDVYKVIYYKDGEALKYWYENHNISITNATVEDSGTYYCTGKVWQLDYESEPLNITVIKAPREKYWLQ
Protocol: A phage based competitive binding ELISA for immobilized FcεRI-IgG in the presence of titrated amounts of soluble FcεRI-IgG was performed on each of the clones.
Peptide sequences from g8p-fused phage clones that specifically bound FcεRI-IgG were transferred onto a g3p-display format for monovalent phage display (Bass et al., Proteins 8, 309-314 (1990); Lowman et al., Biochemistry 30, 10832-10838 (1991)). An oligonucleotide encoding for each desired peptide with additional 5′ and 3′ base pair that overlapped with g3 was synthesized. This oligonucleotide was annealed with a g3 single stranded DNA phagemid template. The mutagenesis reaction was transformed into XL-1 Blue E. coli and plated on LB-carb+ agar plates. Individual colonies were propagated in 5 mL of 2YT broth, tetracycline, carbenicillin and VCSM13 helper phage (Stratagene). Single stranded DNA was isolated from the purified phage particles and sequenced to confirm the insertion of the phage peptide sequence. 25 mL preparations of g3 phage clones were propagated overnight and purified by PEG precipitation. After resuspension of the phage pellet in 1.0 mL of PBS, it was serially diluted ⅓ and incubated with immobilized FcεRI-IgG 2 ug/mL in a 96 well Maxisorp microtiter plate for 1 hour at room temperature. The wells were washed 10× with PBST then incubated with 100 uL of anti M13 phage HRP as described above. An OD(492) value corresponding to less than 50% binding was selected and the purified phage clones were diluted to yield this normalized level of signal. […] The mixture was then transferred to 96 well microtiter dishes containing immobilized FcεRI-IgG. After a 1-hour incubation period, the plates were washed 10 times, incubated with anti M13-HRP conjugated antibody and developed with OPD as described above. The data was plotted, and 4-parameter fits (KaleidaGraph 3.0) used for calculation of IC50 values.
Alanine substitutions were made at various positions throughout the peptide sequence for monovalent (g3p) phage display using site directed mutagenesis as described (Kunkel et al., Methods Enzymol. 204, 125-139 (1991)). In addition, stepwise N-terminal and C-terminal truncations of the peptide sequence were constructed. All constructs were made by designing oligonucleotides corresponding to the desired substitution or truncation, with an additional 18 bp of DNA overlapping the peptide or g3 phage DNA sequence. The phage clones were propagated overnight following infection in XL-1 Blue E. coli. Purified phage preparations were titered and assayed for binding to immobilized receptor. FcεRI-IgG competition assays were performed as described above.

[3] = inhibition of labeled IgE-binding to CHO FcεRI+ cells, read-out: Mean IC50(uM) ± S.D.
[4] = truncated peptides on g3 phage, read-out: IC50

Compound: IVCPRLCYELDYELCPDVCYV
fold improved affinity over IGE120 (FcεRI; clone from IGE120-phage library): about 2 fold

IC50 [1, 3]: 1.1 ± 0.7 µM | Struct. Score [2]: +++
Compound: CSCC[C@H](NC(=O)[C@@H]1CSSC[C@H](NC(=O)[C@H](CCCNC(=N)N)NC(=O)[C@@H]2CCCN2C(=O)[C@H](CC(C)C)NC(=O)[C@H](CC(N)=O)NC(C)=O)C(=O)N[C@@H]([C@@H](C)O)C(=O)N[C@@H](CCC(=O)O)C(=O)NCC(=O)N2CCC[C@H]2C(=O)N[C@@H](Cc2c[nH]c3ccccc23)C(=O)NCC(=O)N[C@@H](Cc2c[nH]c3ccccc23)C(=O)N[C@@H](C(C)C)C(=O)N1)C(=O)N[C@@H](C)C(=O)N[C@@H](CC(=O)O)C(=O)N[C@@H](CC(=O)O)C(N)=O [IGE031, Ac-NLPRCTEGPWGWVCMADD-nh2] (Ac-NLPRCTEGPWGWVCMADD-NH2; disulfide 5-14)

Relative (IC50) (fold weaker) (FcεRI-IgG; truncated peptides on g3 phage): NDB
Compound: RCTEGPWGWVCMAAD [g3c.17]

IC50 (FcεRI-IgG; g3 phage clones, immobilized FcεRI-IgG, titrated soluble FcεRI-IgG, read-out: Phage IC50): 9 nM
Compound: DLPACTEGPWGWVCMAAD [g3b.7]

Relative (IC50) (fold weaker) (FcεRI-IgG; truncated peptides on g3 phage): 1X | IC50 (FcεRI-IgG; [4]): 5 nM
Compound: NLPRCTEGPWGWVCMAA [g3c.29]

Compound: IVCPRLCYVGGKALCPDVCAV [SEQ ID NO:143]
fold reduction in binding affinity compared to IGE120 (FcεRI; IGE120-phage alanine scan): No detectable binding

IC50 ([1]; IGE037: initially, read-out: IC50): ~1 µM | IC50 [1, 3]: 1.8 ± 0.7 µM | Struct. Score [2]: +++
Compound: CSCC[C@H](NC(=O)[C@@H]1CSSC[C@H](NC(=O)[C@H](CCCNC(=N)N)NC(=O)[C@@H]2CCCN2C(=O)[C@H](CC(C)C)NC(=O)[C@H](CC(N)=O)NC(C)=O)C(=O)N[C@@H]([C@@H](C)O)C(=O)N[C@@H](CCC(=O)O)C(=O)NCC(=O)N2CCC[C@H]2C(=O)N[C@@H](Cc2c[nH]c3ccccc23)C(=O)NCC(=O)N[C@@H](Cc2c[nH]c3ccccc23)C(=O)N[C@@H](C(C)C)C(=O)N1)C(=O)O [IGE063, Ac-NLPRCTEGPWGWVCM] (Ac-NLPRCTEGPWGWVCM-OH; disulfide 5-14)

Compound: IVCPRLCYVGGKALCPDVCYV [SEQ ID NO:131]
relative binding affinity (in words) (FcεRI): improved binding affinity

Relative (IC50) (fold weaker) (FcεRI-IgG; truncated peptides on g3 phage): NDB
Compound: CTEGPWGWVCMAAD [g3c.21]

Relative (IC50) (fold weaker) (FcεRI-IgG; truncated peptides on g3 phage): 3X | IC50 (FcεRI-IgG; [4]): 14.6 nM
Compound: NLPRCTEGPWGWVCM [g3c.34]

Compound: VQCPHFCYVGGKALCPDVCYV
relative binding affinity (in words) (FcεRI): improved binding affinity
